Bounds are passed on as bounds.

The first assay has as its system Lox-IMVI melanoma cell line. In words: Lox-IMVI anti-proliferative assay (growth inhibition, Cell Titer-Glo). It counts as cell-based, human. Conditions: Homo sapiens; IC50 activity level in the cell-based Lox-IMVI anti-proliferative assay; read-out: Activity. The method, boiled down: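 Cells grown in RPMI + 10% FBS were exposed to compound at 0.5 nM to 10 μM (10-point, 3-fold dilution, duplicate, 0.2% DMSO final) for 72 h at 37 °C, 5% CO2. Viability was read by ATP luminescence at t0 and 72 h. IC50 came from a four-parameter logistic fit normalized to DMSO control.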
Turning to `NC(=O)[C@H]1CC[C@@H](n2c(Nc3c(F)cc(Cl)cc3F)nc3cnc(N[C@H]4C[C@H](O)C4)nc32)CC1` [Example 283, (1s,4s)-4-(8-(4-chloro-2,6-difluorophenylamino)-2-((1r,3r)-3-hydroxycyclobutylamino)-9H-purin-9-yl)cyclohexanecarboxamide], the IC50 was above 1000 nM. The same measure, in the same setting: to `CS(=O)(=O)N1CCC(Nc2ncc3nc(Nc4c(F)cc(Cl)cc4F)n([C@H]4CC[C@@H](C(N)=O)CC4)c3n2)CC1` [Example 295, (1s,4s)-4-(8-(4-chloro-2,6-difluorophenylamino)-2-(1-(methylsulfonyl)piperidin-4-ylamino)-9H-purin-9-yl)cyclohexanecarboxamide] belongs above 1000 nM; to `CS(=O)(=O)N1CCC(Nc2ncc3nc(Nc4c(F)cc(Cl)cc4Cl)n([C@H]4CC[C@@H](C(N)=O)CC4)c3n2)CC1` [Example 296, (1s,4s)-4-(8-(2,4-dichloro-6-fluorophenylamino)-2-(1-(methylsulfonyl)piperidin-4-ylamino)-9H-purin-9-yl)cyclohexanecarboxamide], 500 to 1000 nM. Turning to `NC(=O)[C@H]1CC[C@@H](n2c(Nc3c(Cl)cccc3Cl)nc3cnc(NC4CC5(COC5)C4)nc32)CC1` [Example 174, (1s,4s)-4-(2-(2-oxaspiro[3.3]heptan-6-ylamino)-8-(2,6-dichlorophenylamino)-9H-purin-9-yl)cyclohexanecarboxamide], the IC50 was above 1000 nM. Turning to `CS(=O)(=O)N1CCC(Nc2ncc3nc(Nc4c(F)cc(F)cc4Cl)n([C@H]4CC[C@@H](C(N)=O)CC4)c3n2)CC1` [Example 294, (1s,4s)-4-(8-(2-chloro-4,6-difluorophenylamino)-2-(1-(methylsulfonyl)piperidin-4-ylamino)-9H-purin-9-yl)cyclohexanecarboxamide], the IC50 is above 1000 nM. Turning to `NC(=O)[C@H]1CC[C@@H](n2c(Nc3c(F)cc(Cl)cc3F)nc3cnc(N[C@@H]4CCCOC4)nc32)CC1` [Example 188, (1S,4s)-4-(8-(4-chloro-2,6-difluorophenylamino)-2-((R)-tetrahydro-2H-pyran-3-ylamino)-9H-purin-9-yl)cyclohexanecarboxamide], the IC50 is above 1000 nM. Still for that read-out and setting: to `NC(=O)[C@H]1CC[C@@H](n2c(Nc3cc(F)c(Cl)cc3F)nc3cnc(N[C@@H]4COC[C@H]4O)nc32)CC1` [Example 321, (1S,4s)-4-(8-(4-chloro-2,5-difluorophenylamino)-2-((3R,4S)-4-hydroxytetrahydrofuran-3-ylamino)-9H-purin-9-yl)cyclohexanecarboxamide] belongs above 1000 nM; to `CC1(C)CC[C@@H](Nc2ncc3nc(Nc4c(Cl)cccc4Cl)n([C@H]4CC[C@@H](C(N)=O)CC4)c3n2)C[C@H]1O` [Example 383, (1S,4s)-4-(8-(2,6-dichlorophenylamino)-2-((1R,3R)-3-hydroxy-4,4-dimethylcyclohexylamino)-9H-purin-9-yl)cyclohexanecarboxamide], above 1000 nM; to `NC(=O)[C@H]1CC[C@@H](n2c(Nc3c(F)cccc3Cl)nc3cnc(NC4COC4)nc32)CC1` [Example 57, (1s,4s)-4-(8-(2-chloro-6-fluorophenylamino)-2-(oxetan-3-ylamino)-9H-purin-9-yl)cyclohexanecarboxamide], above 1000 nM. `C[C@H](CO)Nc1ncc2nc(Nc3c(F)cc(F)cc3Cl)n([C@H]3CC[C@@H](C(N)=O)CC3)c2n1` [Example 134, (1S,4s)-4-(8-(2-chloro-4,6-difluorophenylamino)-2-((R)-1-hydroxypropan-2-ylamino)-9H-purin-9-yl)cyclohexanecarboxamide]: the IC50 was above 1000 nM. As for `NC(=O)[C@H]1CC[C@@H](n2c(Nc3c(F)cccc3F)nc3cnc(NC4CC(F)(F)C4)nc32)CC1` [Example 227, (1s,4s)-4-(2-(3,3-difluorocyclobutylamino)-8-(2,6-difluorophenylamino)-9H-purin-9-yl)cyclohexanecarboxamide], the IC50 is above 1000 nM. `NC(=O)[C@H]1CC[C@@H](n2c(Nc3ccc(F)c(F)c3F)nc3cnc(N[C@@H]4CC[C@@H](O)C4)nc32)CC1` [Example 220, (1S,4s)-4-(2-((1R,3R)-3-hydroxycyclopentylamino)-8-(2,3,4-trifluorophenylamino)-9H-purin-9-yl)cyclohexanecarboxamide]: the IC50 was above 1000 nM. The same measure, in the same setting: the same measure for `NC(=O)[C@H]1CC[C@@H](n2c(Nc3c(Cl)cccc3Cl)nc3cnc(N[C@@H]4CC[C@@H](O)C4)nc32)CC1` [Example 211, (1S,4s)-4-(8-(2,6-dichlorophenylamino)-2-((1R,3R)-3-hydroxycyclopentylamino)-9H-purin-9-yl)cyclohexanecarboxamide]: above 1000 nM; for `NC(=O)[C@H]1CC[C@@H](n2c(Nc3c(F)cc(F)cc3F)nc3cnc(N[C@@H]4CCC[C@H]4O)nc32)CC1` [Example 249, (1S,4s)-4-(2-((1R,2R)-2-hydroxycyclopentylamino)-8-(2,4,6-tnfluorophenylamino)-9H-purin-9-yl)cyclohexanecarboxamide]: above 1000 nM.

Still in this assay, the particulars now being: Homo sapiens; Lox-IMVI anti-proliferative assay, IC50 activity level; read-out: Activity.
For `NC(=O)[C@H]1CC[C@@H](n2c(Nc3c(Cl)cc(Cl)cc3Cl)nc3cnc(N[C@@H]4CCCC[C@H]4O)nc32)CC1` [Example 468, (1S,4s)-4-(2-((1R,2R)-2-hydroxycyclohexylamino)-8-(2,4,6-trichlorophenylamino)-9H-purin-9-yl)cyclohexanecarboxamide], the IC50 is above 1000 nM. On the same count and under the same terms, the same measure for `C[C@]1(C(N)=O)CC[C@@H](n2c(Nc3c(Cl)cc(C#N)cc3Cl)nc3cnc(NC4CCOCC4)nc32)CC1` [Example 535, (1s,4s)-4-(8-(2,6-dichloro-4-cyanophenylamino)-2-(tetrahydro-2H-pyran-4-ylamino)-9H-purin-9-yl)-1-methylcyclohexanecarboxamide]: below 250 nM; for `NC(=O)[C@H]1CC[C@@H](n2c(Nc3c(Cl)cc(C(F)(F)F)cc3Cl)nc3cnc(N[C@@H]4CCC[C@H](O)C4)nc32)CC1` [Example 454, (1S,4s)-4-(8-(2,6-dichloro-4-(trifluoromethyl)phenylamino)-2-((1R,3S)-3-hydroxycyclohexylamino)-9H-purin-9-yl)cyclohexanecarboxamide]: 500 to 1000 nM; for `C[C@]1(C(N)=O)CC[C@@H](n2c(Nc3c(F)cc(F)cc3F)nc3cnc(NC4CC(F)(F)C4)nc32)CC1` [Example 578, (1s,4s)-4-(2-(3,3-difluorocyclobutylamino)-8-(2,4,6-trifluorophenylamino)-9H-purin-9-yl)-1-methylcyclohexanecarboxamide]: below 250 nM.

On to `NC(=O)[C@H]1CC[C@@H](n2c(Nc3c(F)cc(F)cc3F)nc3cnc(N[C@H]4CCC[C@H](O)C4)nc32)CC1` [Example 458, (1R,4s)-4-(2-((1S,3S)-3-hydroxycyclohexylamino)-8-(2,4,6-trifluorophenylamino)-9H-purin-9-yl)cyclohexanecarboxamide], for which the IC50 is above 1000 nM. Still for that read-out and setting: to `C[C@]1(C(N)=O)CC[C@H](n2c(Nc3c(Cl)cc(C#N)cc3Cl)nc3cnc(NC4CCOCC4)nc32)CC1` [Example 475, (1r,4r)-4-(8-(2,6-dichloro-4-cyanophenylamino)-2-(tetrahydro-2H-pyran-4-ylamino)-9H-purin-9-yl)-1-methylcyclohexanecarboxamide] belongs 500 to 1000 nM; to `NC(=O)[C@H]1CC[C@@H](n2c(Nc3c(F)cc(F)cc3F)nc3cnc(N[C@@H]4CCOC4)nc32)CC1` [Example 530, (1S,4s)-4-(2-((R)-tetrahydrofuran-3-ylamino)-8-(2,4,6-trifluorophenylamino)-9H-purin-9-yl)cyclohexanecarboxamide], 500 to 1000 nM. The same measure, in the same setting: the same measure for `NC(=O)[C@H]1CC[C@@H](n2c(Nc3c(F)cc(F)cc3Cl)nc3cnc(N[C@@H]4CCC[C@@H](O)C4)nc32)CC1` [Example 420, (1S,4s)-4-(8-(2-chloro-4,6-difluorophenylamino)-2-((1R,3R)-3-hydroxycyclohexylamino)-9H-purin-9-yl)cyclohexanecarboxamide]: above 1000 nM.

Staying with this assay, now noted: Homo sapiens; Lox-IMVI melanoma cell line, anti-proliferative assay; read-out: Activity (IC50 activity level).
As for `C[C@]1(C(N)=O)CC[C@@H](n2c(Nc3c(F)cc(Cl)cc3F)nc3cnc(N[C@H]4CC[C@H](O)C4)nc32)CC1` [Example 648, (1R,4s)-4-(8-(4-chloro-2,6-difluorophenylamino)-2-((1S,3S)-3-hydroxycyclopentylamino)-9H-purin-9-yl)-1-methylcyclohexanecarboxamide], the IC50 is above 1000 nM. Take `C[C@@H]1COCC[C@H]1Nc1ncc2nc(Nc3c(F)cc(Cl)cc3F)n([C@H]3CC[C@@](C)(C(N)=O)CC3)c2n1` [Example 722, (1S,4s)-4-(8-(4-chloro-2,6-difluorophenylamino)-2-((3S,4R)-3-methyltetrahydro-2H-pyran-4-ylamino)-9H-purin-9-yl)-1-methylcyclohexanecarboxamide]: the IC50 was below 250 nM.

For the compound `C[C@]1(C(N)=O)CC[C@@H](n2c(Nc3c(F)cc(Cl)cc3Cl)nc3cnc(N[C@@H]4CCOC[C@H]4F)nc32)CC1` [Example 726, (1S,4s)-4-(8-(2,4-dichloro-6-fluorophenylamino)-2-((3S,4R)-3-fluorotetrahydro-2H-pyran-4-ylamino)-9H-purin-9-yl)-1-methylcyclohexanecarboxamide], the IC50 was below 250 nM. In the case of `NC(=O)[C@H]1CC[C@@H](n2c(Nc3c(F)cc(F)cc3Cl)nc3cnc(N[C@@H]4CCCN(c5ccccc5)C4)nc32)CC1` [Example 742, (1S,4s)-4-(8-(2-chloro-4,6-difluorophenylamino)-2-((R)-1-phenylpiperidin-3-ylamino)-9H-purin-9-yl)cyclohexanecarboxamide], the IC50 was above 1000 nM.

The same assay, now with this note: Lox-IMVI melanoma cell line, anti-proliferative assay; read-out: Activity (IC50 activity level).
For the compound `CNC(=O)N1CCC[C@@H](Nc2ncc3nc(Nc4c(Cl)cc(C#N)cc4Cl)n([C@H]4CC[C@@H](C(N)=O)CC4)c3n2)C1` [Example 707, (R)-3-(9-((1s,4S)-4-carbamoylcyclohexyl)-8-(2,6-dichloro-4-cyanophenylamino)-9H-purin-2-ylamino)-N-methylpiperidine-1-carboxamide], the IC50 was above 1000 nM.
